Test results reported in patent publication US7704995B2 (Exelixis, Inc., priority 2003, dated 2010).

Target: T1, Chk1 (Homo sapiens, UniProt O14757)
T1 construct: purchased Upstate Biotechnology
T1 sequence (O14757 1-476): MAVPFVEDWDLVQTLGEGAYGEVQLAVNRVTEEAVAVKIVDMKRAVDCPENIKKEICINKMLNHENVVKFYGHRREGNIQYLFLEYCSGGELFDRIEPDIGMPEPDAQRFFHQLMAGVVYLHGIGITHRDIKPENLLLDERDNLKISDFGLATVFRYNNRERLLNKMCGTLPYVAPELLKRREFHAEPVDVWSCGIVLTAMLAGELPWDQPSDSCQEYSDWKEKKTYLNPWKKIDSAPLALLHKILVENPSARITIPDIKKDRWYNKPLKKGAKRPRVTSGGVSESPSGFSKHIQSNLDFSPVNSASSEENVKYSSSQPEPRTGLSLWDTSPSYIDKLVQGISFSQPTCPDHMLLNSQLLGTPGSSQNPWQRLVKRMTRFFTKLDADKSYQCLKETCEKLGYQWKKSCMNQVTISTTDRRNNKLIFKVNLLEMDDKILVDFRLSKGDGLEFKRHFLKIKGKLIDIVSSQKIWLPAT
Test: Chk1 kinase assay: incorporation of γ-33P ATP into immobilized myelin basic protein
Type: biochemical
Conditions: read-out: Chk1 IC50
How it was run: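 MBP coated on plates (20 μg/ml) was phosphorylated by Chk1 (10 nM) or Chk2 (20 nM) with γ-33P ATP plus 10 μM (Chk1) or 30 μM (Chk2) unlabeled ATP, 1 h at room temperature, 1% DMSO. Bound radioactivity was counted by scintillation after washing; IC50 or Ki derived from fitted rate data.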

Q: How did the IC50 turn out when `CNC(=O)c1nc(-c2cccc(C(=O)NCc3ccc(OC)c(OC)c3)c2)cnc1N` [Example 371, 3-amino-6-{3-[({[3,4-bis(methyloxy)phenyl]methyl}amino)carbonyl]phenyl}-N-methylpyrazine-2-carboxamide] was run?
A: 50 to 1000 nM

Q: For `CNC(=O)c1nc(-c2cccc(NCc3ccccc3)c2)cnc1N` [Example 372, 3-amino-N-methyl-6-{3-[(phenylmethyl)amino]phenyl}pyrazine-2-carboxamide], which IC50 is on record?
A: 50 to 1000 nM

Q: `CNC(=O)c1nc(-c2cccc(C(=O)NCc3ccccc3OCCN3CCOCC3)c2)cnc1N` [Example 373, 3-amino-N-methyl-6-(3-{[({2-[(2-morpholin-4-ylethyl)oxy]phenyl}methyl)amino]carbonyl}phenyl)pyrazine-2-carboxamide] was tested. Which IC50 did it give?
A: 50 to 1000 nM

Q: For `CNC(=O)c1nc(-c2cccc(CNC(=O)c3ccc(C(C)C)cc3)c2)cnc1N` [Example 374, 3-amino-N-methyl-6-{3-[({[4-(1-methylethyl)phenyl]carbonyl}amino)methyl]phenyl}pyrazine-2-carboxamide], which IC50 is on record?
A: 50 to 1000 nM

Q: For `CCCCc1ccc(CNC(=O)c2cccc(-c3cnc(N)c(C(=O)NC)n3)c2)cc1` [Example 375, 3-amino-6-[3-({[(4-butylphenyl)methyl]amino}carbonyl)phenyl]-N-methylpyrazine-2-carboxamide], which IC50 is on record?
A: 50 to 1000 nM

Q: With `CNC(=O)c1nc(-c2cccc(C(=O)NCc3ccc(-c4csnn4)cc3)c2)cnc1N` [Example 376, 3-amino-N-methyl-6-{3-[({[4-(1,2,3-thiadiazol-4-yl)phenyl]methyl}amino)carbonyl]phenyl}pyrazine-2-carboxamide] as the compound, how does the IC50 read?
A: < 50 nM

Q: Which IC50 does the source give for `CNC(=O)c1nc(-c2cccc(C(=O)NCc3ccc(-c4cccs4)cc3)c2)cnc1N` [Example 377, 3-amino-N-methyl-6-{3-[({[4-(2-thienyl)phenyl]methyl}amino)carbonyl]phenyl}pyrazine-2-carboxamide] here?
A: < 50 nM

Q: How did the IC50 turn out when `CNC(=O)c1nc(-c2cccc(CNC(=O)c3ccc(C(C)(C)C)cc3)c2)cnc1N` [Example 378, 3-amino-6-{3-[({[4-(1,1-dimethylethyl)phenyl]carbonyl}amino)methyl]phenyl}-N-methylpyrazine-2-carboxamide] was run?
A: 50 to 1000 nM

Q: How did the IC50 turn out when `CNC(=O)c1nc(-c2cccc(C(=O)NCc3ccc(-n4cccn4)cc3)c2)cnc1N` [Example 379, 3-amino-N-methyl-6-{3-[({[4-(1H-pyrazol-1-yl)phenyl]methyl}amino)carbonyl]phenyl}pyrazine-2-carboxamide] was run?
A: 50 to 1000 nM

Q: Which IC50 does the source give for `CNC(=O)c1nc(-c2cccc(C(=O)NCc3ccc4c(c3)NCCO4)c2)cnc1N` [Example 380, 3-amino-6-(3-{[(3,4-dihydro-2H-1,4-benzoxazin-6-ylmethyl)amino]carbonyl}phenyl)-N-methylpyrazine-2-carboxamide] here?
A: 50 to 1000 nM

Q: With `CNC(=O)c1nc(-c2cccc(C(=O)NCc3c(N)cccc3F)c2)cnc1N` [Example 381, 3-amino-6-[3-({[(2-amino-6-fluorophenyl)methyl]amino}carbonyl)phenyl]-N-methylpyrazine-2-carboxamide] as the compound, how does the IC50 read?
A: 50 to 1000 nM

Q: Which IC50 does the source give for `CNC(=O)c1nc(-c2cccc(CNCc3ccc(-c4ccccc4)cc3)c2)cnc1N` [Example 382, 3-amino-6-(3-{[(biphenyl-4-ylmethyl)amino]methyl}phenyl)-N-methylpyrazine-2-carboxamide] here?
A: 50 to 1000 nM

Q: With `CNC(=O)c1nc(-c2cccc(CNCc3ccccc3-c3ccccc3)c2)cnc1N` [Example 383, 3-amino-6-(3-{[(biphenyl-2-ylmethyl)amino]methyl}phenyl)-N-methylpyrazine-2-carboxamide] as the compound, how does the IC50 read?
A: 50 to 1000 nM

Q: Which IC50 does the source give for `CNC(=O)c1nc(-c2cccc(CNCc3cccc(-c4ccccc4)c3)c2)cnc1N` [Example 384, 3-amino-6-(3-{[(biphenyl-3-ylmethyl)amino]methyl}phenyl)-N-methylpyrazine-2-carboxamide] here?
A: 50 to 1000 nM

Q: Which IC50 does the source give for `CNC(=O)c1nc(-c2cccc(C(=O)NCC3CCCN3Cc3ccccc3)c2)cnc1N` (stereo not shown) [Example 385, 3-amino-N-methyl-6-{3-[({[1-(phenylmethyl)pyrrolidin-2-yl]methyl}amino)carbonyl]phenyl}pyrazine-2-carboxamide] here?
A: 50 to 1000 nM

Q: How did the IC50 turn out when `CNC(=O)c1nc(-c2cccc(CNCc3ccc4c(c3)NCCO4)c2)cnc1N` [Example 386, 3-amino-6-(3-{[(3,4-dihydro-2H-1,4-benzoxazin-6-ylmethyl)amino]methyl}phenyl)-N-methylpyrazine-2-carboxamide] was run?
A: 50 to 1000 nM

Q: For `CNC(=O)c1nc(-c2cccc(CNCc3ccc(F)cc3F)c2)cnc1N` [Example 387, 3-amino-6-[3-({[(2,4-difluorophenyl)methyl]amino}methyl)phenyl]-N-methylpyrazine-2-carboxamide], which IC50 is on record?
A: < 50 nM

Q: With `CNC(=O)c1nc(-c2cccc(CNCc3cc(F)ccc3F)c2)cnc1N` [Example 388, 3-amino-6-[3-({[(2,5-difluorophenyl)methyl]amino}methyl)phenyl]-N-methylpyrazine-2-carboxamide] as the compound, how does the IC50 read?
A: 50 to 1000 nM

Q: Which IC50 does the source give for `CNC(=O)c1nc(-c2cccc(CNCc3cccc(F)c3F)c2)cnc1N` [Example 389, 3-amino-6-[3-({[(2,3-difluorophenyl)methyl]amino}methyl)phenyl]-N-methylpyrazine-2-carboxamide] here?
A: 50 to 1000 nM

Q: With `CNC(=O)c1nc(-c2cccc(C(=O)NCc3ccccc3-c3ccncc3)c2)cnc1N` [Example 390, 3-amino-N-methyl-6-[3-({[(2-pyridin-4-ylphenyl)methyl]amino}carbonyl)phenyl]pyrazine-2-carboxamide] as the compound, how does the IC50 read?
A: 50 to 1000 nM

Q: Which IC50 does the source give for `CNC(=O)c1nc(-c2cccc(C(=O)NCc3ccccc3-c3cccnc3)c2)cnc1N` [Example 391, 3-amino-N-methyl-6-[3-({[(2-pyridin-3-ylphenyl)methyl]amino}carbonyl)phenyl]pyrazine-2-carboxamide] here?
A: 50 to 1000 nM

Q: Which IC50 does the source give for `CNC(=O)c1nc(-c2cccc(CNCc3ccc(S(C)(=O)=O)cc3)c2)cnc1N` [Example 392, 3-amino-N-methyl-6-{3-[({[4-(methylsulfonyl)phenyl]methyl}amino)methyl]phenyl}pyrazine-2-carboxamide] here?
A: 50 to 1000 nM

Q: With `CNC(=O)c1nc(-c2cccc(CNCC(c3ccccc3)c3ccccc3)c2)cnc1N` [Example 393, 3-amino-6-(3-{[(2,2-diphenylethyl)amino]methyl}phenyl)-N-methylpyrazine-2-carboxamide] as the compound, how does the IC50 read?
A: 50 to 1000 nM

Q: For `CNC(=O)c1nc(-c2cccc(C(=O)NCC3CCN(Cc4ccccc4)C3)c2)cnc1N` (stereo not shown) [Example 394, 3-amino-N-methyl-6-{3-[({[1-(phenylmethyl)pyrrolidin-3-yl]methyl}amino)carbonyl]phenyl}pyrazine-2-carboxamide], which IC50 is on record?
A: 50 to 1000 nM

Q: Which IC50 does the source give for `CNC(=O)c1nc(-c2cccc(CNCc3cccc(Oc4ccccc4)c3)c2)cnc1N` [Example 395, 3-amino-N-methyl-6-{3-[({[3-(phenyloxy)phenyl]methyl}amino)methyl]phenyl}pyrazine-2-carboxamide] here?
A: 50 to 1000 nM

Q: `CNC(=O)c1nc(-c2cccc(CNCc3ccc(N)cc3)c2)cnc1N` [Example 396, 3-amino-6-[3-({[(4-aminophenyl)methyl]amino}methyl)phenyl]-N-methylpyrazine-2-carboxamide] was tested. Which IC50 did it give?
A: 50 to 1000 nM

Q: For `CNC(=O)c1nc(-c2cccc(CNCc3ccc(Oc4ccccc4)cc3)c2)cnc1N` [Example 397, 3-amino-N-methyl-6-{3-[({[4-(phenyloxy)phenyl]methyl}amino)methyl]phenyl}pyrazine-2-carboxamide], which IC50 is on record?
A: 50 to 1000 nM

Q: For `CNC(=O)c1nc(-c2cccc(CNCc3c(OC)cccc3OC)c2)cnc1N` [Example 398, 3-amino-6-{3-[({[2,6-bis(methyloxy)phenyl]methyl}amino)methyl]phenyl}-N-methylpyrazine-2-carboxamide], which IC50 is on record?
A: 50 to 1000 nM

Q: For `CNC(=O)c1nc(-c2cccc(CNCc3ccccc3F)c2)cnc1N` [Example 399, 3-amino-6-[3-({[(2-fluorophenyl)methyl]amino}methyl)phenyl]-N-methylpyrazine-2-carboxamide], which IC50 is on record?
A: < 50 nM

Q: How did the IC50 turn out when `CNC(=O)c1nc(-c2cncc(C(=O)NCc3c(F)cccc3F)c2)cnc1N` [Example 400, 3-amino-6-[5-({[(2,6-difluorophenyl)methyl]amino}carbonyl)pyridin-3-yl]-N-methylpyrazine-2-carboxamide] was run?
A: 50 to 1000 nM

Q: `CNC(=O)c1nc(-c2cncc(C(=O)NCc3ccccc3-c3ccccc3)c2)cnc1N` [Example 401, 3-amino-6-(5-{[(biphenyl-2-ylmethyl)amino]carbonyl}pyridin-3-yl)-N-methylpyrazine-2-carboxamide] was tested. Which IC50 did it give?
A: 50 to 1000 nM

Q: With `CNC(=O)c1nc(-c2cccc(CNCc3c(F)cccc3F)c2)cnc1N` [Example 402, 3-amino-6-[3-({[(2,6-difluorophenyl)methyl]amino}methyl)phenyl]-N-methylpyrazine-2-carboxamide] as the compound, how does the IC50 read?
A: 50 to 1000 nM

Q: `CNC(=O)c1nc(-c2cccc(CNCc3ccc4c(c3)OCCO4)c2)cnc1N` [Example 403, 3-amino-6-(3-{[(2,3-dihydro-1,4-benzodioxin-6-ylmethyl)amino]methyl}phenyl)-N-methylpyrazine-2-carboxamide] was tested. Which IC50 did it give?
A: 50 to 1000 nM

Q: For `CNC(=O)c1nc(-c2cccc(CNCc3ccccc3N3CCCCC3)c2)cnc1N` [Example 404, 3-amino-N-methyl-6-[3-({[(2-piperidin-1-ylphenyl)methyl]amino}methyl)phenyl]pyrazine-2-carboxamide], which IC50 is on record?
A: 50 to 1000 nM
